Results taken from patent publication US9708314B2, “Heterocyclic amide compound” (NISSAN CHEMICAL INDUSTRIES, LTD., priority 2013, dated 2017).

Assays:
Type in all cases: in vivo
Brassica campestris L. = assay: Test Example 4: effect on crop by application to foliage (diluvial soil, plastic box); details: for g: Application herbicide amount 320 g/ha, effect on crop
Procedure, shortened: (§1)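 Seeds sown in sterilized diluvial soil, covered ~1.5 cm, grown 14 days in greenhouse at 25° C. to 30° C. Emulsion formulation diluted in water to set rate (g/ha) and sprayed onto stems and leaves. Effect scored visually 3 weeks later on 0–5 scale (5 = ≥90% herbicidal ratio, 0 = ≤5%).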

[1] = tested on: Beta vulgaris ssp. vulgaris; assay: as above; details: for f: Application herbicide amount 320 g/ha, effect on crop
Procedure, shortened: as §1

Triticum aestivum = assay: as above; details: for e: Application herbicide amount 320 g/ha, effect on crop
Procedure, shortened: as §1

[2] = tested on: directly sowed Oryza sativa; assay: as above; details: for d: Application herbicide amount 320 g/ha, effect on crop
Procedure, shortened: as §1

Zea mays = assay: as above; details: for b: Application herbicide amount 320 g/ha, effect on crop
Procedure, shortened: as §1

Glycine max = assay: as above; details: for c: Application herbicide amount 320 g/ha, effect on crop
Procedure, shortened: as §1

Monochoria vaginalis = assay: Test Example 2: herbicidal activity, application during weed generation in submerged conditions; details: Eighteenth Table; application herbicide amount 320 g/ha
From the text: (§2) 5 Herbicidal ratio of 90% or more (almost completely withered) 4 Herbicidal ratio of 70% or more and less than 90% 3 Herbicidal ratio of 40% or more and less than 70% 2 Herbicidal ratio of 20% or more and less than 40% 1 Herbicidal ratio of 5% or more and less than 20% 0 Herbicidal ratio of 5% or less (almost no effect) [Test Example 2] Herbicidal Activity Test by Application During Weed Generation in Submerged Conditions After alluvial soil was placed into 1/10000 are of Wagner pot, water was poured and mixed to form a submerged condition having a water depth of 4 cm. Seeds of Echinochloa oryzacola Vasing., Scirpus juncoides, and Monochoria vaginalis were sowed in a mixed manner in the above pot and the pot was placed in the greenhouse of 25° C. to 30° C. to grow the plants. When Echinochloa oryzacola Vasing., Scirpus juncoides, and Monochoria vaginalis were grown to one leaf stage to two leaf stage, the emulsion agent containing the compound of the present invention prepared in accordance with Formulation Example 2 was diluted with water so as to be a predetermined herbicide amount and the diluted compound was applied to the surface of the water. Three weeks after the herbicide application, effects on each plant were investigated in accordance with the criteria of Test Example 1. A: Echinochloa oryzicola Vasing., B: Scirpus juncoides, C: Monochoria vaginalis, D: Leptochloa chinensis, E: Cyperus difformis, F: Digitaria ciliaris, G: Setaria viridis, H: Echinochloa crus-galli var. crus-galli, I: Avena fatua, J: Alopecurus myosuroides, K: Lolium multiflorum Lam., L: Apera spica-venti., M: Abutilon theophrasti, N: Amaranthus retroflexus, O: Chenopodium album, P: Stellaria media, Q: Galium spurium, R: Veronica persica, a: transplanted Oryza sativa, b: directly sowed Oryza sativa, c: Zea mays, d: Glycine max, e: Triticum aestivum, f: Beta vulgaris ssp. vulgaris, and g: Brassica campestris L. The application herbicide amount (g/ha) means an amount that a concentration is adjusted so that, when an application amount is converted into per hectare (1 ha), the herbicide is applied by the number of grams (g) of the described value.

[3] = tested on: Echinochloa oryzacola Vasing.; assay: as above; details: Eighteenth Table; application herbicide amount 320 g/ha
From the text: as §2

Scirpus juncoides = assay: as above; details: Eighteenth Table; application herbicide amount 320 g/ha
From the text: as §2

Lolium multiflorum Lam. = assay: Test Example 4: herbicidal effect by application to foliage (diluvial soil, plastic box); details: for K: Application herbicide amount 320 g/ha
Procedure, shortened: as §1

Apera spica-venti. = assay: as above; details: for L: Application herbicide amount 320 g/ha
Procedure, shortened: as §1

Alopecurus myosuroides = assay: as above; details: for J: Application herbicide amount 320 g/ha
Procedure, shortened: as §1

[4] = tested on: Echinochloa crus-galli var. crus-galli; assay: as above; details: for H: Application herbicide amount 320 g/ha
Procedure, shortened: as §1

Abutilon theophrasti = assay: as above; details: for M: Application herbicide amount 320 g/ha
Procedure, shortened: as §1

Avena fatua = assay: as above; details: for I: Application herbicide amount 320 g/ha
Procedure, shortened: as §1

Chenopodium album = assay: as above; details: for O: Application herbicide amount 320 g/ha
Procedure, shortened: as §1

Setaria viridis = assay: as above; details: for G: Application herbicide amount 320 g/ha
Procedure, shortened: as §1

[5] = application to foliage, application herbicide amount 320 g/ha

SMILES | C (Monochoria vaginalis) herbicidal ratio grade (Monochoria vaginalis) | A (Echinochloa oryzicola Vasing.) herbicidal ratio grade [3] | B (Scirpus juncoides) herbicidal ratio grade (Scirpus juncoides) | g (Brassica campestris L.) | f [1] | e (Triticum aestivum) | d [2] | b (Zea mays) | c (Glycine max) | K (Lolium multiflorum Lam.) | L (Apera spica-venti.) | J (Alopecurus myosuroides) | H [4] | M (Abutilon theophrasti) | I (Avena fatua) | O (Chenopodium album) | G (Setaria viridis) | further results
Cc1nnc(NC(=O)c2ccc(C(F)(F)F)n3c(C)nnc23)o1 [1-002] | 0 (Herbicidal ratio of 5% or less (almost no effect)) | 3 (Herbicidal ratio of 40% or more and less than 70%) | 0 (Herbicidal ratio of 5% or less (almost no effect)) | – | – | – | – | – | – | – | – | – | – | – | – | – | – | g (Brassica campestris L.) effect on crop (Brassica campestris L.; [5]): 4 (Herbicidal ratio of 70% or more and less than 90%); f (Beta vulgaris ssp. vulgaris) effect on crop [1, 5]: 5 (Herbicidal ratio of 90% or more (almost completely withered)); e (Triticum aestivum) effect on crop (Triticum aestivum; [5]): 1 (Herbicidal ratio of 5% or more and less than 20%); d (directly sowed Oryza sativa) effect on crop [2, 5]: 3 (Herbicidal ratio of 40% or more and less than 70%); b (Zea mays) effect on crop (Zea mays; [5]): 0 (Herbicidal ratio of 5% or less (almost no effect)); c (Glycine max) effect on crop (Glycine max; [5]): 0 (Herbicidal ratio of 5% or less (almost no effect)); K (Lolium multiflorum Lam.) herbicidal effect (Lolium multiflorum Lam.; [5]): 2 (Herbicidal ratio of 20% or more and less than 40%); L (Apera spica-venti.) herbicidal effect (Apera spica-venti.; [5]): 1 (Herbicidal ratio of 5% or more and less than 20%); J (Alopecurus myosuroides) herbicidal effect (Alopecurus myosuroides; [5]): 1 (Herbicidal ratio of 5% or more and less than 20%); H (Echinochloa crus-galli var. crus-galli) herbicidal effect [4, 5]: 5 (Herbicidal ratio of 90% or more (almost completely withered)); M (Abutilon theophrasti) herbicidal effect (Abutilon theophrasti; [5]): 3 (Herbicidal ratio of 40% or more and less than 70%); I (Avena fatua) herbicidal effect (Avena fatua; [5]): 3 (Herbicidal ratio of 40% or more and less than 70%); O (Chenopodium album) herbicidal effect (Chenopodium album; [5]): 5 (Herbicidal ratio of 90% or more (almost completely withered)); G (Setaria viridis) herbicidal effect (Setaria viridis; [5]): 2 (Herbicidal ratio of 20% or more and less than 40%)
COc1ccc(Cc2nnc3c(C(=O)Nc4nnc(C)o4)ccc(C(F)(F)F)n23)cc1 [1-069] | 4 (Herbicidal ratio of 70% or more and less than 90%) | 4 (Herbicidal ratio of 70% or more and less than 90%) | 4 (Herbicidal ratio of 70% or more and less than 90%) | 3 (Herbicidal ratio of 40% or more and less than 70%) | 5 (Herbicidal ratio of 90% or more (almost completely withered)) | 1 (Herbicidal ratio of 5% or more and less than 20%) | 3 (Herbicidal ratio of 40% or more and less than 70%) | 0 (Herbicidal ratio of 5% or less (almost no effect)) | 1 (Herbicidal ratio of 5% or more and less than 20%) | 2 (Herbicidal ratio of 20% or more and less than 40%) | 4 (Herbicidal ratio of 70% or more and less than 90%) | 2 (Herbicidal ratio of 20% or more and less than 40%) | 5 (Herbicidal ratio of 90% or more (almost completely withered)) | 3 (Herbicidal ratio of 40% or more and less than 70%) | 2 (Herbicidal ratio of 20% or more and less than 40%) | 5 (Herbicidal ratio of 90% or more (almost completely withered)) | 5 (Herbicidal ratio of 90% or more (almost completely withered)) | –
COc1cc(OC)cc(-c2nnc3c(C(=O)Nc4nnc(C)o4)ccc(C(F)(F)F)n23)c1 [1-070] | 5 (Herbicidal ratio of 90% or more (almost completely withered)) | 5 (Herbicidal ratio of 90% or more (almost completely withered)) | 5 (Herbicidal ratio of 90% or more (almost completely withered)) | 3 (Herbicidal ratio of 40% or more and less than 70%) | 4 (Herbicidal ratio of 70% or more and less than 90%) | 0 (Herbicidal ratio of 5% or less (almost no effect)) | 4 (Herbicidal ratio of 70% or more and less than 90%) | 0 (Herbicidal ratio of 5% or less (almost no effect)) | 0 (Herbicidal ratio of 5% or less (almost no effect)) | 0 (Herbicidal ratio of 5% or less (almost no effect)) | 0 (Herbicidal ratio of 5% or less (almost no effect)) | 0 (Herbicidal ratio of 5% or less (almost no effect)) | 5 (Herbicidal ratio of 90% or more (almost completely withered)) | 4 (Herbicidal ratio of 70% or more and less than 90%) | 1 (Herbicidal ratio of 5% or more and less than 20%) | 5 (Herbicidal ratio of 90% or more (almost completely withered)) | 4 (Herbicidal ratio of 70% or more and less than 90%) | –
COCC[S+]([O-])c1nnc2c(C(=O)Nc3nnc(C)o3)ccc(C(F)(F)F)n12 (stereo not shown) [1-073] | 1 (Herbicidal ratio of 5% or more and less than 20%) | 2 (Herbicidal ratio of 20% or more and less than 40%) | 2 (Herbicidal ratio of 20% or more and less than 40%) | 3 (Herbicidal ratio of 40% or more and less than 70%) | 5 (Herbicidal ratio of 90% or more (almost completely withered)) | 3 (Herbicidal ratio of 40% or more and less than 70%) | 4 (Herbicidal ratio of 70% or more and less than 90%) | 5 (Herbicidal ratio of 90% or more (almost completely withered)) | 0 (Herbicidal ratio of 5% or less (almost no effect)) | 3 (Herbicidal ratio of 40% or more and less than 70%) | 3 (Herbicidal ratio of 40% or more and less than 70%) | 2 (Herbicidal ratio of 20% or more and less than 40%) | 5 (Herbicidal ratio of 90% or more (almost completely withered)) | 5 (Herbicidal ratio of 90% or more (almost completely withered)) | 3 (Herbicidal ratio of 40% or more and less than 70%) | 5 (Herbicidal ratio of 90% or more (almost completely withered)) | 5 (Herbicidal ratio of 90% or more (almost completely withered)) | –
CSC(C)c1nnc2c(C(=O)Nc3nnc(C)o3)ccc(C(F)(F)F)n12 (stereo not shown) [1-078] | 3 (Herbicidal ratio of 40% or more and less than 70%) | 4 (Herbicidal ratio of 70% or more and less than 90%) | 3 (Herbicidal ratio of 40% or more and less than 70%) | 4 (Herbicidal ratio of 70% or more and less than 90%) | 5 (Herbicidal ratio of 90% or more (almost completely withered)) | 4 (Herbicidal ratio of 70% or more and less than 90%) | 4 (Herbicidal ratio of 70% or more and less than 90%) | 4 (Herbicidal ratio of 70% or more and less than 90%) | 4 (Herbicidal ratio of 70% or more and less than 90%) | 3 (Herbicidal ratio of 40% or more and less than 70%) | 4 (Herbicidal ratio of 70% or more and less than 90%) | 3 (Herbicidal ratio of 40% or more and less than 70%) | 5 (Herbicidal ratio of 90% or more (almost completely withered)) | 5 (Herbicidal ratio of 90% or more (almost completely withered)) | 4 (Herbicidal ratio of 70% or more and less than 90%) | 5 (Herbicidal ratio of 90% or more (almost completely withered)) | 5 (Herbicidal ratio of 90% or more (almost completely withered)) | –
